Values quoted from earlier work, collected in article PMC11974678 (bioRxiv, 2025).

Target: T1, FABP1 (Homo sapiens, UniProt P07148)
T1 sequence (P07148 with tags, fused parts or gaps): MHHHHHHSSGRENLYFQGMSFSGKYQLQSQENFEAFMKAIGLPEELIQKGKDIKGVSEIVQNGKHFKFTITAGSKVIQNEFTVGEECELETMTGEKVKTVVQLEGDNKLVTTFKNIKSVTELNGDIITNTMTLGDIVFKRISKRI
Details: read-out: KD of binding to FABP1

Q: With `O=C(O)C(F)(F)C(F)(F)C(F)(F)C(F)(F)C(F)(F)C(F)(F)C(F)(F)F` [335-67-1, perfluorooctanoic acid] as the molecule, how does the Kd read?
A: 18.8 µM
